Data from patent US20240398774A1, “METHODS OF TREATING INFLAMMATORY DISEASES WITH A SELECTIVE GLUCOCORTICOID RECEPTOR MODULATOR” (ASTRAZENECA AB, priority 2021, published 2024).

Experiments:
[1] = Continuous Glucose Monitoring (CGM) in type 2 diabetes patients, clinical trial NCT04556760; format: in vivo, human
Protocol: (§1) Patient population. In clinical trial NCT04556760, eligible patients were 18 to 75 years old. Eligible patients had diagnosis of type 2 diabetes mellitus for 6 months prior to screening, such as HbAlc in the diabetes range or fasting plasma glucose 126-220 mg/dL. Eligible patients were on stable metformin therapy for at least 4 weeks, where no significant dose change (increase or decrease≥500 mg/day) has occurred prior to screening and HbAlc 6%-9.5%, or on dual therapy with metformin in combination with SGLT2i or DPP4i and HbAlc 6%-8%. Participants on dual therapy required 2 weeks wash-out of SGLT2i or DPP4i.
(§2) Study design. This was a randomized, double blind, multi-center, double dummy, and two-way cross-over study. The aim of the study was to compare the effect on glycaemic control and incretin response at equipotent doses of AZD9567 and prednisolone in diabetes patients. The AZD9567 and prednisolone doses were predicted to be equipotent, based on an ex vivo efficacy analysis from previous phase 1 studies. The study consisted of a total of three cohorts. Each cohort was treated for two 72-hour periods in a cross-over design, with a 3-week washout period between treatment periods as illustrated in FIG. 1. The total length of participant engagement (from screening to follow-up) is 79 days.
(§3) Cohort 1 included 27 patients. The patents were randomized in a ratio of 1:1 to receive 72 mg/day (oral suspension) AZD9567 and 40 mg/day prednisolone over two 72 hour periods in a cross over design: 72 mg AZD9567 for 3 consecutive days of each treatment period followed by 40 mg prednisolone for 3 consecutive days of each treatment period [AB sequence group], or 40 mg prednisolone for 3 consecutive days of each treatment period followed by 72 mg AZD9567 for 3 consecutive days of each treatment period [BA sequence group].
Cohort 2 included 8 patients. The patents were randomized in a ratio of 1:1 to receive 40 mg/day (oral suspension) AZD9567 and prednisolone over two 72 hour periods in a cross over design: 40 mg AZD9567 for 3 consecutive days of each treatment period followed by 20 mg prednisolone for 3 consecutive days of each treatment period [AB sequence group] or 20 mg prednisolone for 3 consecutive days of each treatment period followed by 40 mg AZD9567 for 3 consecutive days of each treatment period [BA sequence group].
Cohort 3 included 9 patients. The patents were randomized in a ratio of 1:1 to receive placebo and 5 mg/day prednisolone over two 72 hour periods in a cross over design: placebo for 3 consecutive days of each treatment period followed by 5 mg prednisolone for 3 consecutive days of each treatment period [AB sequence group] or 5 mg prednisolone for 3 consecutive days of each treatment period followed by placebo for 3 consecutive days of each treatment period [BA sequence group]).
CGM includes a normal diet and is reflective of daily glucose control under “real world” conditions. […]

[2] = test system: hypothalamic-pituitary-adrenal (HPA) axis; experiment: morning serum cortisol and adrenocorticotropic hormone in type 2 diabetes patients; format: in vivo, human
Protocol: as §2
Cohort 1 included 27 patients. The patents were randomized in a ratio of 1:1 to receive 72 mg/day (oral suspension) AZD9567 and 40 mg/day prednisolone over two 72 hour periods in a cross over design: 72 mg AZD9567 for 3 consecutive days of each treatment period followed by 40 mg prednisolone for 3 consecutive days of each treatment period [AB sequence group], or 40 mg prednisolone for 3 consecutive days of each treatment period followed by 72 mg AZD9567 for 3 consecutive days of each treatment period [BA sequence group]. […]

[3] = test system: transcription of tyrosine aminotransferase (TAT); experiment: TAT transcription in human hepatocytes in vitro; format: cell-based; details: for upregulation of transcription of tyrosine aminotransferase (TAT): human hepatocytes in vitro
[4] = safety and clinical outcomes in patients; format: in vivo, human
[5] = test system: lipopolysaccharide (LPS)-stimulated tumour necrosis factor-α (TNFα) release; experiment: ex vivo inhibition of LPS-stimulated TNFα release in human whole blood; format: cell-based; details: compared with prednisolone
[6] = plasma pharmacokinetics in diabetic patients; format: in vivo, human; details: oral dosing
Protocol: as §2, with “days. […]” for “days.”

joint inflammation = experiment: rat model of joint inflammation; format: in vivo; details: compared with prednisolone
[7] = Mixed Meal Tolerance Test (MMTT) in type 2 diabetes patients, clinical trial NCT04556760; format: in vivo, human; details: for MMTT-stimulated insulin secretion / glucagon secretion after MMTT: Cohort 1, Day 4
Protocol: as §1, §2, §3
MMTT provides a fixed composition of protein, carbohydrates and fat, and is meant to mimic “normal” meal. It generally consists of 30.2 g protein, 19.6 g of fat, 75 g of carbohydrates with 6.6. g of fiber, totaling 612 kCal. It requires a standardized dinner the night before the test, 12 h fasting prior to the test, and standardized breakfast consumed (<30 min) at 7 AM (solid meal) consisting of pre-determined quantities of carbohydrates, proteins and fats. Sampling is done at −15, 10, 20, 30, 60, 75, 120, 180, and 240 min.
The primary endpoint was change in glucose AUC (0-4 h) versus baseline compared to prednisolone following a standardized mixed meal tolerance test (MMTT) on Days −1, 4, 27, and 31. The change from baseline in glucose AUC (0-4 h) was analyzed using a mixed model repeated measures (MMRM) with baseline included as covariate. […]

CC(C)[C@H](NC(=O)C(C)(F)F)[C@H](Oc1ccc2c(cnn2-c2ccc(=O)n(C)c2)c1)c1ccccc1 [AZD9567, 2,2-difluoro-N-[(1R,2S)-3-methyl-1-[1-(1-methyl-6-oxopyridin-3-yl)indazol-5-yl]oxy-1-phenylbutan-2-yl]propanamide]
increase in mean daily glucose relative to glycaemic targets for type 2 diabetes patients (70-180 mg/dl) ([1]; Cohort 1, 72 mg/day): within glycaemic targets
HbAlc difference corresponding to mean daily glucose difference between AZD9567 and prednisolone ([1]; Cohort 1, 48-72 h, based on estimated Average Glucose (eAG) equation): 0.7%
mean daily glucose increase as compared to prednisolone ([1]; Cohort 1: 72 mg/day AZD9567 vs 40 mg/day prednisolone): significantly lower
differentiation on glycaemic control versus prednisolone (CGM) ([1]; Cohort 1: 72 mg/day AZD9567 vs 40 mg/day prednisolone, 3 days): clear and consistent differentiation
HbAlc difference corresponding to mean daily glucose difference between AZD9567 and prednisolone ([1]; Cohort 2, lower dose, based on eAG equation): 0.4%
mean daily glucose increase as compared to prednisolone ([1]; Cohort 2: 40 mg/day AZD9567 vs 20 mg/day prednisolone): lower
differentiation on glycaemic control versus prednisolone (CGM) ([1]; Cohort 2: 40 mg/day AZD9567 vs 20 mg/day prednisolone, relative to Cohort 1): lower
observed difference in mean daily glucose (CGM) vs prednisolone ([1]; at 48-72 hrs, Target Value 1.221 mmol/L, Lower Reference Value 0.599 mmol/L): 1.507 mmol/L
adrenocorticotropic hormone (ACTH) concentrations ([2]; Cohort 1, change from baseline): indicative of preserved hypothalamic-pituitary-adrenal (HPA) axis capacity
cortisol change during treatment ([2]; Cohort 1, returning to baseline at follow-up): marked, target-related, reversible cortisol suppression
effect on prednisolone-induced upregulation of TAT transcription ([3]; coadministered with prednisolone in primary human hepatocytes): dose-dependently reduces
upregulation of transcription of tyrosine aminotransferase (TAT) [3]: does not upregulate
safety concerns following the analysis of Cohort 1 ([4]; Cohort 1, 72 mg/day for 3 days): No significant new safety concerns
rate of treatment intensification (dose increase of current oral antidiabetic therapy, or start/addition of insulin) as compared to prednisone ([4]; diagnosed diabetic patients): lower rate
incidence of hospitalization vs prednisone ([4]; heart failure patients): lower incidence
incidence of progression to type 2 diabetes mellitus as compared to prednisone ([4]; population predisposed to type 2 diabetes mellitus): lower incidence
inhibition of LPS-stimulated TNFα release [5]: similar
elimination half-life in diabetic patients as compared to healthy volunteers in phase 1 study [6]: increased
systemic exposure in diabetic patients as compared to healthy volunteers in phase 1 study [6]: higher
anti-inflammatory effects in vivo in a rat model of joint inflammation (joint inflammation): similar
difference in reduction of glucose AUC0-4h after MMTT (AZD9567 vs prednisolone) ([7]; Cohort 1, 24 h after last dose (Day 4), 95CI 0.01, 8.88, p=0.05): 4.54%
MMTT-stimulated insulin secretion [7]: increased
glucagon secretion after MMTT [7]: unaffected
insulin:glucagon ratio ([7]; Cohort 1, MMTT, vs prednisolone): marked improvement
absolute difference in reduction of glucose AUC0-4h after MMTT (AZD9567 vs prednisolone) ([7]; Cohort 1, 95% CI 9.40, 256.1, p=0.036): 132.95 mmol·min/L

C[C@]12C=CC(=O)C=C1CC[C@@H]1[C@@H]2[C@@H](O)C[C@@]2(C)[C@H]1CC[C@]2(O)C(=O)CO [prednisolone, reference compound]
differentiation on glycaemic control vs placebo on CGM ([1]; Cohort 3: 5 mg/day prednisolone vs placebo): No differentiation
upregulation of transcription of tyrosine aminotransferase (TAT) [3]: upregulation
systemic exposure in diabetic patients as compared to healthy volunteers in phase 1 study [6]: higher
MMTT-stimulated insulin secretion [7]: lower
glucagon secretion after MMTT [7]: increased
